Experimental data taken from PubChem BioAssay (NCI).
Where “and” joins values, the source holds several entries; their conditions need not be identical. Identical values can stand only once.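 48-hour exposure; five concentrations; linearly interpolated endpoints. GI50 is the concentration that inhibits growth by half. TGI: concentration producing complete growth inhibition.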

Key:
Experiment in all cases: NCI tumour cell line growth inhibition, 48 h
SN12C renal = test system: SN12C renal
RPMI-8226 leukemia = test system: RPMI-8226 leukemia
NCI-H23 lung = test system: NCI-H23 lung
MDA-MB-231 breast = test system: MDA-MB-231 breast
SK-MEL-5 melanoma = test system: SK-MEL-5 melanoma
HL-60(TB) leukemia = test system: HL-60(TB) leukemia
NCI-H522 lung = test system: NCI-H522 lung
HS 578T breast = test system: HS 578T breast
DLD-1 colon = test system: DLD-1 colon
SNB-78 CNS = test system: SNB-78 CNS

Structure (SMILES)	GI50 (SN12C renal)	TGI (SN12C renal)	GI50 (RPMI-8226 leukemia)	TGI (RPMI-8226 leukemia)	GI50 (NCI-H23 lung)	TGI (NCI-H23 lung)	GI50 (MDA-MB-231 breast)	TGI (MDA-MB-231 breast)	GI50 (SK-MEL-5 melanoma)	TGI (SK-MEL-5 melanoma)	GI50 (HL-60(TB) leukemia)	TGI (HL-60(TB) leukemia)	GI50 (NCI-H522 lung)	TGI (NCI-H522 lung)	GI50 (HS 578T breast)	TGI (HS 578T breast)	GI50 (DLD-1 colon) [µM]	TGI (DLD-1 colon) [µM]	GI50 (SNB-78 CNS) [µM]	TGI (SNB-78 CNS) [µM]
O=C(Nc1ccc(OC(F)(F)F)cc1)c1sccc1NCc1ccnc2ccccc12	2.97 µM	> 100 µM	3.32 µM	29.8 µM	2.18 µM	19.6 µM	1.98 µM	15.5 µM	2.37 µM	7.21 µM	1.78 µM	19.3 µM	3 µM	> 72 µM	3.39 µM	26 µM	–	–	–	–
CC(C)(C)OC(=O)NCC(C#N)CNC(=O)OC(C)(C)C	–	> 100 µM	–	> 100 µM	–	> 100 µM	–	> 100 µM	–	> 100 µM	–	> 100 µM	–	> 100 µM	–	> 100 µM	–	–	–	–
Nc1cc(N)c2nc(-c3ccccc3)c(Oc3ccc(F)cc3)nc2c1	19.3 µM	52.7 µM	12.2 µM	46.4 µM	20.7 µM	40.2 µM	3.87 µM	28.8 µM	12.2 µM	31.8 µM	18.5 µM	64.8 µM	64.7 µM	> 100 µM	19.8 µM	53.7 µM	–	–	–	–
COc1ccc(OC)c(-c2cc(-c3ccccc3)nn2-c2ccc(S(=O)(=O)NC(C)=O)cc2)c1	13.2 µM	26.2 µM	1.97 µM	4.36 µM	8.24 µM	21.5 µM	3.09 µM	14.1 µM	11.8 µM	26.8 µM	28 µM	> 100 µM	10.4 µM	34.8 µM	27.4 µM	80 µM	–	–	–	–
Cc1cc2c(C(C)C)c(O)c(O)c(C=Nc3cc(C(F)(F)F)ccc3Cl)c2c(O)c1-c1c(C)cc2c(C(C)C)c(O)c(O)c(C=Nc3cc(C(F)(F)F)ccc3Cl)c2c1O	–	> 100 µM	–	> 100 µM	–	> 100 µM	–	> 100 µM	–	64.7 µM	–	78.5 µM	–	45.4 µM	–	> 100 µM	–	–	–	–
CSc1ccc(C2=Nn3c(nnc3-c3ccc(F)c(Cl)c3)SC2)cc1	2.67 µM	9.78 µM	18.6 µM	> 100 µM	37.4 µM	> 100 µM	4.12 µM	21 µM	11.9 µM	52.7 µM	5.39 µM	> 100 µM	4.38 µM	21.4 µM	10 µM	36.6 µM	–	–	–	–
CNC(=O)Nc1ccc(-c2nc(N3CCOCC3)nc3c2cnn3C2CCOCC2)cc1	0.213 µM	> 100 µM	0.205 µM	–	0.267 µM	> 100 µM	0.292 µM	> 51.9 µM	0.208 µM	1.22 µM	1.01 µM	> 100 µM	0.43 µM	> 100 µM	0.0503 µM	0.303 µM	–	–	–	–
CN1CCCN(CCNc2nccc(-c3c(-c4cccc(O)c4)nc4sccn34)n2)S1(=O)=O	8.55 µM and 6.23 µM	75 µM and > 100 µM	16.7 µM and 15.2 µM	37.2 µM and 41.3 µM	11.1 µM and 14.4 µM	37.8 µM and 72.9 µM	10 µM and 8.06 µM	59.2 µM and > 84.4 µM	1.17 µM and 1.23 µM	11.2 µM and 13.8 µM	14.1 µM and 11.3 µM	38.3 µM and 32 µM	5.54 µM and 9.27 µM	27.2 µM and 42.1 µM	7.08 µM and 3.04 µM	75 µM and 26 µM	–	–	–	–
COc1ccc(C(=O)N2c3ccccc3Sc3ccccc32)c(F)c1	1.94 µM	> 100 µM	0.922 µM	63 µM	3.42 µM	> 100 µM	3.52 µM	> 100 µM	0.759 µM	22.5 µM	0.325 µM	> 100 µM	0.403 µM	> 100 µM	0.377 µM	> 100 µM	–	–	–	–
C=C1C(=O)O[C@@H]2C[C@@]3(C)CC(=O)C=C(C)[C@@H]3C[C@H]12	–	26.2 µM	–	5.45 µM	–	29.9 µM	–	34 µM	–	22.9 µM	–	4.08 µM	–	20.3 µM	–	99.7 µM	–	–	–	–
CC1(C)CCC(C)(C)c2cc(C(=O)Nc3ccc(C(=O)O)cc3)ccc21	–	> 100 µM	–	57.7 µM	–	37.8 µM	–	> 95.2 µM	–	> 56 µM	–	> 53.1 µM	–	70.6 µM	–	> 46.8 µM	–	–	–	–
Clc1ccc([O][In]([O]c2ccc(Cl)cn2)[O]c2ccc(Cl)cn2)nc1	> 100 µM	> 100 µM	–	–	> 100 µM	> 100 µM	–	–	15.8 µM	76.8 µM	–	–	–	–	–	–	> 100	> 100	> 100	> 100
C#C[C@]1(O)CC[C@H]2[C@@H]3CC=C4c5nc(Nc6ccccn6)sc5CC[C@]4(C)[C@H]3CC[C@@]21C	1.75 µM	3.62 µM	0.182 µM	0.602 µM	1.67 µM	6.64 µM	1 µM	3.11 µM	1.6 µM	2.98 µM	0.398 µM	1.96 µM	1.86 µM	4.12 µM	0.421 µM	2.4 µM	–	–	–	–
CS(=O)(=O)c1ccc(Cl)c([N+](=O)[O-])c1	13.8 µM	28.2 µM	25.5 µM	70 µM	16.5 µM	33.5 µM	16.1 µM	31.1 µM	13 µM	25.7 µM	19.7 µM	47.6 µM	16.5 µM	33.5 µM	26 µM	89.1 µM	–	–	–	–
Cn1cc(C2=C(c3cn(C)c4ccc(N)cc34)C(=O)NC2=O)c2ccccc21	13.4 µM	> 25 µM	> 16.5 µM	> 25 µM	15.3 µM	> 25 µM	> 25 µM	> 25 µM	6.91 µM	> 25 µM	7.41 µM	> 25 µM	6.78 µM	> 25 µM	5.3 µM	> 25 µM	–	–	–	–
Cc1ccc(C(=O)Nc2ccc(CN3CCN(C)CC3)c(C(F)(F)F)c2)cc1C#Cc1cnc(N)c2ccc(F)cc12	0.0793 µM	0.73 µM	0.53 µM	1.64 µM	0.584 µM	2.24 µM	0.353 µM	0.905 µM	0.805 µM	2.18 µM	0.198 µM	1.35 µM	0.214 µM	0.723 µM	0.301 µM	1.37 µM	–	–	–	–
